Experimental findings from patent US20230382934A1, “HIGH ENTROPY OXIDES AND METHODS OF SYNTHESIS AND USE THEREOF” (Auburn University, priority 2022, published 2023) are described below.

Experiment [1] can be described thus: T1-weighted relaxivity response to H2O2, 3 T clinical MRI scanner. The settings on record: Example 1, Mn(II) complex with H4qp4. The method, then: The relaxivities of complex 1 before and during its reaction with H2O2 were assessed using a 3 T MRI scanner (FIG. 27D). T1 values were measured for aqueous solutions containing 0-1.0 mM 1 and 50 mM HEPES buffered to pH 7.00. For each concentration of 1, an oxidized sample was also prepared by adding 10 mM H2O2; the large excess of oxidant was used to ensure as full a turn-on as possible at the timepoints and to facilitate comparisons to manganese-containing MRI contrast agents that were previously prepared and characterized. The T1 values for the H2O2-containing solutions were measured 1 h and 2 h after the reagents were initially mixed. Full series of data were collected for two independently prepared batches of 1 in order to confirm that the results were replicable.
The MRI properties of 1 were assessed using methods that were previously employed in studies of manganese-containing MRI contrast agents. The relaxivity of 1 was measured before and after its reaction with excess H2O2 using a 3 T MRI scanner (FIG. 51). The r1 for the pre-activated complex was calculated from the T1 values of aqueous solutions containing 50 mM HEPES buffered to pH 7.00 and 0-1 mM 1. T1 measurements were also acquired for oxidized samples that contained 10 mM H2O2 in addition to the aforementioned reagents. The T1 values were measured 30 min and 60 min after the solution samples were initially prepared. […]

The nature of experiment [2]: Catalase activity (degradation of H2O2, absorbance at 240 nm). Type of experiment: biochemical. The settings on record: Mn(II) complex, 100 nM, 10 mM H2O2, 100 mM phosphate pH 7.0. The method, then:
FIG. 31 depicts representative kinetic traces for the reaction between 100 nM 1 and 10 mM H2O2 in 100 mM phosphate solution buffered to pH 7.0. The absorbance at 240 nm was monitored over time. Activity values were calculated using the UV-1601PC Kinetics program and converted to an initial rate (vo/[1]T) using the following equation: vo/[1]T=(activity)/[60 s×[…]×0.0000394 μM^−1 cm^−1×1.0 cm].
FIG. 66 depicts representative kinetic traces for the reaction between 100 nM 1 and 10 mM H2O2 in 200 mM phosphate solution buffered to pH 7.0. The absorbance at 240 nm was monitored over time. Activity values were calculated using the UV-1601PC Kinetics program and converted to an initial rate (vo/[1]T) using the following equation: vo/[1]T=(activity)/[60 s×0.1 μM×0.0000394 μM^−1 cm^−1×1.0 cm]
FIG. 67, comprising FIG. 67A and FIG. 67B, depicts a Michaelis-Menten fit of the activity of 1. FIG. 67A depicts activity of 1 with increasing concentrations of H2O2. All reactions were performed in 200 mM phosphate buffered to pH 7.0 at 25° C. with an initial 100 nM concentration of 1. […]
In order to assess the ability of the Mn(II) complex to catalyze the degradation of H2O2, we reacted 100 nM 1 with 10 mM H2O2 in 100 mM phosphate solution buffered to pH 7.0 and monitored the absorbance at 240 nm over time. […] The consumption of H2O2 was evaluated using a UV-1601 Shimadzu spectrophotometer.

Consider “(1,8-Bis(2,5-dihydroxybenzyl)-1,4,8,11tetraazacyclotetradecane)manganese(II) triflate [Complex 1]”, for which the “increase in r1 upon oxidation by H2O2” value in experiment [1] was 130%. For the same substance, the “initial rate vo/[1]T” value in experiment [2] stood at 6600 s⁻¹.
